Experimental data as given in ChEMBL document CHEMBL1201862, “PubChem BioAssay data set” (2004).
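96-well plates; 48 h exposure; 5 concentrations. Endpoints by linear interpolation between flanking doses. Not reached: highest tested concentration assigned. GI50 = concentration required for 50% inhibition of growth.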 Active and inactive are the calls of the source. No stated cut-off is given here; in the data, active = GI50 up to about 1.1 µM and inactive = higher.

Columns and labels:
Experiment in all cases: inhibition of tumour cell growth, NCI panel, 48 h
786-0 = system: 786-0
A549 = system: A549
HOP-62 = system: HOP-62
HT-29 = system: HT-29
LOX IMVI = system: LOX IMVI
LXFL 529 = system: LXFL 529
M14 = system: M14
M19-MEL = system: M19-MEL
NCI-H23 = system: NCI-H23
OVCAR-3 = system: OVCAR-3
OVCAR-4 = system: OVCAR-4
OVCAR-5 = system: OVCAR-5
OVCAR-8 = system: OVCAR-8
SF-295 = system: SF-295
SK-MEL-28 = system: SK-MEL-28
SK-MEL-2 = system: SK-MEL-2
SR = system: SR
SW-620 = system: SW-620
UACC-62 = system: UACC-62

| SMILES | GI50 (786-0) | GI50 (A549) | GI50 (HOP-62) | GI50 (HT-29) | GI50 (LOX IMVI) | GI50 (LXFL 529) | GI50 (M14) | GI50 (M19-MEL) | GI50 (NCI-H23) | GI50 (OVCAR-3) | GI50 (OVCAR-4) | GI50 (OVCAR-5) | GI50 (OVCAR-8) | GI50 (SF-295) | GI50 (SK-MEL-28) | GI50 (SK-MEL-2) | GI50 (SR) | GI50 (SW-620) | GI50 (UACC-62) |
| --- | --- | --- | --- | --- | --- | --- | --- | --- | --- | --- | --- | --- | --- | --- | --- | --- | --- | --- | --- |
| O=C1C2=C(SCCS2)C(=O)c2ccccc21 | 1.74 µM (inactive) | 1.9 µM (inactive) | 1.56 µM (inactive) | 2.18 µM (inactive) | 0.902 µM (active) | 1.64 µM (inactive) | 1.87 µM (inactive) | 0.236 µM (active) | 1.85 µM (inactive) | 1.71 µM (inactive) | 1.65 µM (inactive) | 1.83 µM (inactive) | 1.67 µM (inactive) | 1.76 µM (inactive) | 1.85 µM (inactive) | 1.99 µM (inactive) | 1.2 µM (inactive) | 2.11 µM (inactive) | 1.65 µM (inactive) |
| CN1OC(CO)CC12C1CC3CC(C1)CC2C3 (centres undefined) | > 100 µM (inactive) | > 100 µM (inactive) | > 100 µM (inactive) | > 100 µM (inactive) | > 100 µM (inactive) | > 100 µM (inactive) | > 100 µM (inactive) | > 100 µM (inactive) | > 100 µM (inactive) | > 100 µM (inactive) | > 100 µM (inactive) | > 100 µM (inactive) | > 100 µM (inactive) | > 100 µM (inactive) | > 100 µM (inactive) | > 100 µM (inactive) | > 100 µM (inactive) | > 100 µM (inactive) | > 100 µM (inactive) |
| CSc1ccc(Cc2cc(C(C)(C)C)cc(C(C)(C)C)c2O)cc1 | 16.7 µM (inactive) | 13.6 µM (inactive) | 20.6 µM (inactive) | 13.8 µM (inactive) | 10.4 µM (inactive) | 13.9 µM (inactive) | 15.1 µM (inactive) | 16.8 µM (inactive) | 14.5 µM (inactive) | – | 15.4 µM (inactive) | 3.11 µM (inactive) | 16.9 µM (inactive) | 17.6 µM (inactive) | 16.5 µM (inactive) | 3.88 µM (inactive) | 8.75 µM (inactive) | 16.1 µM (inactive) | 15.3 µM (inactive) |
| Cc1ccc(S(=O)(=O)N/N=C(\CCN2CCCC2)CC(c2ccccc2)c2c(O)c3ccccc3oc2=O)cc1 (centres undefined) | > 100 µM (inactive) | > 100 µM (inactive) | > 100 µM (inactive) | > 100 µM (inactive) | > 100 µM (inactive) | > 100 µM (inactive) | > 100 µM (inactive) | > 100 µM (inactive) | > 100 µM (inactive) | > 100 µM (inactive) | > 100 µM (inactive) | > 100 µM (inactive) | > 100 µM (inactive) | > 100 µM (inactive) | – | > 100 µM (inactive) | > 100 µM (inactive) | 49.5 µM (inactive) | > 100 µM (inactive) |
| O=C1c2ccccc2OP(=O)(OCC(F)(F)F)OC1(C(F)(F)F)C(F)(F)F (centres undefined) | > 100 µM (inactive) | > 100 µM (inactive) | > 100 µM (inactive) | > 100 µM (inactive) | > 100 µM (inactive) | > 100 µM (inactive) | > 100 µM (inactive) | > 100 µM (inactive) | > 100 µM (inactive) | – | > 100 µM (inactive) | > 100 µM (inactive) | > 100 µM (inactive) | > 100 µM (inactive) | > 100 µM (inactive) | > 100 µM (inactive) | > 100 µM (inactive) | > 100 µM (inactive) | > 100 µM (inactive) |
| CC1CC(c2ccc(Cl)cc2)=Nc2ccccc2S1 (centres undefined) | > 100 µM (inactive) | > 100 µM (inactive) | > 100 µM (inactive) | > 100 µM (inactive) | – | > 100 µM (inactive) | > 100 µM (inactive) | > 100 µM (inactive) | > 100 µM (inactive) | > 100 µM (inactive) | > 100 µM (inactive) | > 100 µM (inactive) | > 100 µM (inactive) | > 100 µM (inactive) | > 100 µM (inactive) | > 100 µM (inactive) | > 100 µM (inactive) | > 100 µM (inactive) | > 100 µM (inactive) |
| NC(=S)N/N=C(\C(=O)Nc1ccc(Cl)c(Cl)c1)C1=NN(c2ccccc2)C(c2cccc([N+](=O)[O-])c2)CC1=O (centres undefined) | 17.6 µM (inactive) | 75.2 µM (inactive) | 34.6 µM (inactive) | 16.5 µM (inactive) | 16.3 µM (inactive) | 19.1 µM (inactive) | 55.1 µM (inactive) | 18.4 µM (inactive) | 21.5 µM (inactive) | 20.6 µM (inactive) | 20 µM (inactive) | 38.5 µM (inactive) | 26.7 µM (inactive) | 24.9 µM (inactive) | 52.5 µM (inactive) | > 100 µM (inactive) | 28.6 µM (inactive) | 13.8 µM (inactive) | 40.8 µM (inactive) |
| Cc1cc2c(=O)cc(-c3ccncc3)oc2c(C(N)=O)c1C | > 100 µM (inactive) | > 100 µM (inactive) | > 100 µM (inactive) | > 100 µM (inactive) | > 100 µM (inactive) | > 100 µM (inactive) | – | > 100 µM (inactive) | > 100 µM (inactive) | > 100 µM (inactive) | – | > 100 µM (inactive) | > 100 µM (inactive) | > 100 µM (inactive) | > 100 µM (inactive) | > 100 µM (inactive) | > 100 µM (inactive) | > 100 µM (inactive) | 99.8 µM (inactive) |
| N#Cc1ccc(C(C2C(=O)NC(=O)NC2=O)C2C(=O)NC(=O)NC2=O)cc1 | > 100 µM (inactive) | > 100 µM (inactive) | > 100 µM (inactive) | > 100 µM (inactive) | > 100 µM (inactive) | > 100 µM (inactive) | > 100 µM (inactive) | > 100 µM (inactive) | > 100 µM (inactive) | > 100 µM (inactive) | > 100 µM (inactive) | > 100 µM (inactive) | > 100 µM (inactive) | > 100 µM (inactive) | > 100 µM (inactive) | > 100 µM (inactive) | > 100 µM (inactive) | > 100 µM (inactive) | > 100 µM (inactive) |
| C/C(=N\NC(=S)NC(CCC(=O)O)C(=O)O)c1cnccn1 (centres undefined) | > 100 µM (inactive) | > 100 µM (inactive) | > 100 µM (inactive) | > 100 µM (inactive) | > 100 µM (inactive) | > 100 µM (inactive) | > 100 µM (inactive) | > 100 µM (inactive) | > 100 µM (inactive) | > 100 µM (inactive) | > 100 µM (inactive) | > 100 µM (inactive) | > 100 µM (inactive) | > 100 µM (inactive) | > 100 µM (inactive) | > 100 µM (inactive) | > 100 µM (inactive) | > 100 µM (inactive) | > 100 µM (inactive) |
| CCOC(=O)NC(=O)c1cn(C2OC(COC(=O)CCCCCCCCC(=O)OCC3OC(n4cc(C(=O)NC(=O)OCC)c(=O)[nH]c4=O)C(O)C3O)C(O)C2O)c(=O)[nH]c1=O (centres undefined) | > 100 µM (inactive) | > 100 µM (inactive) | > 100 µM (inactive) | > 100 µM (inactive) | > 100 µM (inactive) | > 100 µM (inactive) | > 100 µM (inactive) | > 100 µM (inactive) | > 100 µM (inactive) | > 100 µM (inactive) | > 100 µM (inactive) | > 100 µM (inactive) | > 100 µM (inactive) | > 100 µM (inactive) | > 100 µM (inactive) | > 100 µM (inactive) | > 100 µM (inactive) | > 100 µM (inactive) | > 100 µM (inactive) |
| COC1OC(OC)C2C(c3c(C)cc(C)cc3C)=NOC12 (centres undefined) | > 100 µM (inactive) | > 100 µM (inactive) | 2.13 µM (inactive) | > 100 µM (inactive) | > 100 µM (inactive) | > 100 µM (inactive) | > 100 µM (inactive) | > 100 µM (inactive) | > 100 µM (inactive) | > 100 µM (inactive) | > 100 µM (inactive) | > 100 µM (inactive) | > 100 µM (inactive) | > 100 µM (inactive) | > 100 µM (inactive) | > 100 µM (inactive) | > 100 µM (inactive) | > 100 µM (inactive) | > 100 µM (inactive) |
| O=C(/C=C/c1ccc(-c2ccccc2)cc1)c1ccccc1 | 22.8 µM (inactive) | 19.5 µM (inactive) | – | 21.9 µM (inactive) | 15.7 µM (inactive) | 17.6 µM (inactive) | 31.1 µM (inactive) | 24 µM (inactive) | 20.1 µM (inactive) | – | 29.7 µM (inactive) | 17.3 µM (inactive) | 17.3 µM (inactive) | 30.2 µM (inactive) | 25.8 µM (inactive) | 12.7 µM (inactive) | 12.7 µM (inactive) | 20.7 µM (inactive) | 20.8 µM (inactive) |
| CCC/C(=N/NC(=O)C(N)=O)C(CC)C(=O)CCC(=O)N(Cc1ccccc1)Cc1ccccc1 (centres undefined) | > 100 µM (inactive) | > 100 µM (inactive) | > 100 µM (inactive) | > 100 µM (inactive) | > 100 µM (inactive) | > 100 µM (inactive) | > 100 µM (inactive) | > 100 µM (inactive) | > 100 µM (inactive) | > 100 µM (inactive) | – | > 100 µM (inactive) | > 100 µM (inactive) | > 100 µM (inactive) | > 100 µM (inactive) | > 100 µM (inactive) | > 100 µM (inactive) | > 100 µM (inactive) | > 100 µM (inactive) |
| Cc1cccc2c(=O)cc(-c3ccccc3)[nH]c12 | 4.78 µM (inactive) | 6.11 µM (inactive) | 3.64 µM (inactive) | 3.1 µM (inactive) | 4.58 µM (inactive) | 4.61 µM (inactive) | 3.45 µM (inactive) | 4.61 µM (inactive) | 4.91 µM (inactive) | 3.31 µM (inactive) | 4.09 µM (inactive) | – | – | 4.09 µM (inactive) | > 100 µM (inactive) | 4.6 µM (inactive) | 6.93 µM (inactive) | 2.6 µM (inactive) | 4.21 µM (inactive) |
